From patent publication US11192900B2, “Substituted 1,6-dihydropyridinones and 1,2-dihydroisoquinolinones as bet inhibitors” (NUVATION BIO INC., priority 2018, dated 2021)
Read-outs that look alike come from different tables or passages of the source.

How the values were obtained:
[1] = test system: 22Rv1 cells; experiment: 22Rv1 cell proliferation assay with wash-off or mock wash-off; format: cell-based, human
Description: A 22Rv1 cell proliferation assay was used to assess durability of test compound effects after transient exposure of test compound to cells. 22Rv1 cells were seeded at 3000 cells per well/100 μl in a 96-well plate and incubated with test compounds at specified dilutions for 2 hr at 37° C. and 5% CO2. Following the incubation, test compound was washed off and replacement culture medium without test compound was added. Wash-off was performed by three PBS washes. The cells were incubated for an additional 96 hr at 37° C. and 5% CO2. In parallel, a mock wash-off was performed with cells that were treated identically except that the replacement culture medium contained test compound. The plate was incubated for 4 hr at 37° C., 5% CO2 and fluorescence was measured using excitation and emission wavelengths of 535 and 590 nm, respectively. Cell viability data were plotted using GraphPad Prism (GraphPad Software, Inc., San Diego, Calif.). In addition, a nonlinear regression model with a sigmoidal dose response and variable slope within GraphPad Prism was used to calculate the IC50 value of individual test compounds.

[2] = test system: MV-4-11 human acute myeloid leukemia cell line; experiment: Second cell viability assay in MV-4-11 (Cell Titer-Glo); format: cell-based; conditions: MV4-11, Cell Titer-Glo, 72 hrs, read-out: Cell Viability IC50 in MV4-11 cells
Description: The effects of test compounds were studied in a second cell viability assay in the MV-4-11 human acute myeloid leukemia cell line. The cells were harvested during the logarithmic growth period and counted. Cells were seeded at a count of 15000 cells per well/100 μl. After seeding, cells were incubated at 37° C., 5% CO2 for 1 hr. Cells were treated with test compounds at 8 concentrations within a desired concentration range (e.g. 5 nM-[…]) for generation of dose response curves by preparing serial dilutions of the test compound in DMSO which were further diluted with culture medium and then added to each well. The plate was further incubated for another 72 hrs in a humidified incubator at 37° C. and 5% CO2. The assay was terminated by addition of Cell Titer-Glo reagent (Promega, Madison, Wis.) at ¼ the volume of total medium per well. Contents were mixed, the plate was incubated for 10 min at room temperature and luminescence was measured. Cell viability data were plotted using GraphPad Prism (GraphPad Software, Inc., San Diego, Calif.). In addition, a nonlinear regression model with a sigmoidal dose response and variable slope within GraphPad Prism was used to calculate the IC50 value of individual test compounds.

[3] = target: BRD4-1 (Homo sapiens (Human), UniProt O60885); experiment: Bromodomain and Extraterminal Domain (BET) Binding Assay; conditions: Table 3; read-out: BRD4-1 IC50
Description: (§1) The bromodomain binding assays were performed by Reaction Biology Corp., Malvern, Pa., USA (www.reactionbiology.com). The BET binding assays were conducted in 384 well microplates in assay buffer (50 mM HEPES-HCl, pH 7.5, 100 mM NaCl, 1 mg/ml BSA, 0.05% CHAPS, and 0.5% DMSO) with compounds added as DMSO stocks at a single concentration or with 10-point dose response titrations. BET protein or assay buffer were delivered to the appropriate wells of the microplate. Test compound was then delivered by acoustic technology via a Labcyte Echo550 liquid handler. The microplate was centrifuged for 5 min and pre-incubated for 30 min at RT with gentle shaking. The ligand (histone H4 peptide (1-21) K5/8/12/16Ac-biotin) was delivered and the microplate was again centrifuged for 5 min and allowed to incubate for 30 min at RT with gentle shaking. Donor beads were then added in the absence of light and the microplate was centrifuged and gently shaken. After 5 min, acceptor beads were added in the absence of light and the microplate was centrifuged and gently shakenin the dark for 60 min. The microplate was read using a Perkin Elmer EnSpire Alpha plate reader (λEx/λEm=680/520-620 nm). Percent inhibition was calculated relative to positive and negative controls on a per plate basis. For titration experiments, IC50 values were determined by fitting the percent inhibition versus compound concentration.

[4] = target: BRD4-2 (Homo sapiens (Human), UniProt O60885); experiment: as above; conditions: Table 3; read-out: BRD4-2 IC50
Description: as §1

[5] = test system: c-Myc; experiment: Measurement of c-Myc suppression after washoff (Western blot); format: cell-based, human; conditions: MV4-11, 2 μM for 2 hr, washed, further 6 hr
Description: MV4-11 cells were incubated with 2 μM of JQ1, mivebresib or a test compound for 2 hr. The cells were then washed twice with fresh culture medium and further cultured for another 6 hr. Cells were extracted with SDS sample buffers and then subjected to Western blot analysis to measure c-Myc. Compounds 2, 3, 12, 17, 409, 411 and 412 were tested in these assays.

[6] = test system: IEC-6 rat intestinal epithelial cell line; experiment: IEC-6 cell viability, Protocol B (toxicity to non-cancerous cells); format: cell-based; conditions: IEC-6, 4000 cells per well, 48 hrs
Description: The effects of test compounds were also studied in the IEC-6 rat intestinal epithelial cell line to assess potential toxicity to non-cancerous cells. The cells were harvested during the logarithmic growth period and counted. In Protocol A, cells were seeded at a count of 3000 cells per well/100 μl in a 96-well plate. After seeding, cells were incubated at 37° C., 5% CO2 for 24 hr. Cells were treated with test compounds at 8 concentrations within a desired concentration range (e.g. 5 nM-10 μM) for generation of dose response curves by preparing serial dilutions of the test compound in DMSO which were further diluted with culture medium and then added to each well. The plate was further incubated for another 96 hrs in humidified incubator at 37° C. and 5% CO2. The assay was terminated by addition of resazurin (# R7017, Sigma). The plate was incubated for 4 hr at 37° C., 5% CO2 and fluorescence was measured using excitation and emission wavelengths of 535 and 590 nm, respectively. Cell viability data were plotted using GraphPad Prism (GraphPad Software, Inc., San Diego, Calif.). In addition, a nonlinear regression model with a sigmoidal dose response and variable slope within GraphPad Prism was used to calculate the IC50 value of individual test compounds. Protocol B was the same as Protocol A except that cells were seeded at a count of 4000 cells per well/100 μl in a 96-well plate, and the incubation with test compound was for 48 hrs instead of 96 hrs.

[7] = test system: 22Rv1 human prostate carcinoma cell line; experiment: Cell viability assay (resazurin); format: cell-based; conditions: 22Rv1, resazurin, 72 hrs
Description: The effects of test compounds were also studied in the 22Rv1 human prostate carcinoma and MDA-MB-231 human breast adenocarcinoma cell lines. The cells were harvested during the logarithmic growth period and counted. Cells were seeded at a count of 3000 cells (22Rv1) or 5000 cells (MDA-MB-231) per well/100 μl in a 96-well plate. After seeding, cells were incubated at 37° C., 5% CO2 for 24 hr. Cells were treated with test compounds at 8 concentrations within a desired concentration range (e.g. 5 nM-10 μM) for generation of dose response curves by preparing serial dilutions of the test compound in DMSO which were further diluted with culture medium and then added to each well. The plate was further incubated for another 72 hrs (22Rv1) or 96 hrs (MDA-MB-231) in humidified incubator at 37° C. and 5% CO2. The assay was terminated by addition of resazurin (# R7017, Sigma). The plate was incubated for 4 hr at 37° C., 5% CO2 and fluorescence was measured using excitation and emission wavelengths of 535 and 590 nm, respectively. Cell viability data were plotted using GraphPad Prism (GraphPad Software, Inc., San Diego, Calif.). In addition, a nonlinear regression model with a sigmoidal dose response and variable slope within GraphPad Prism was used to calculate the IC50 value of individual test compounds.

Row | IC50 ([2]; Homo sapiens) [nM] | IC50 [3] [nM] | IC50 [4] [nM] | Compound | c-Myc suppression activity after washoff [5] | further results
1 | 114 | 22 | 3 | C=CS(=O)(=O)Nc1ccc(Oc2ccc(F)cc2F)c(-c2cn(C)c(=O)cc2OC)c1 [Compound 406, N-(4-(2,4-difluorophenoxy)-3-(4-methoxy-1-methyl-6-oxo-1,6-dihydropyridin-3-yl)phenyl)ethenesulfonamide] |  | IC50 ([1]; Homo sapiens, 22Rv1, 2 hr exposure, three PBS washes, additional 96 hr without compound, read-out: Wash-off IC50): 415 nM; IC50 ([1]; Homo sapiens, 22Rv1, 2 hr, replacement medium with test compound, additional 96 hr, read-out: Mock wash-off IC50): 255 nM
2 | 51 | 183 | 11 | C=CC(=O)Nc1ccc(Oc2ccc(F)cc2F)c(-c2cn(C)c(=O)cc2OC)c1 [Compound 407, N-(4-(2,4-difluorophenoxy)-3-(4-methoxy-1-methyl-6-oxo-1,6-dihydropyridin-3-yl)phenyl)acrylamide] | less durable activity | IC50 ([6]; Rattus norvegicus): 693 nM
3 | 253 | 479 | 75 | C=CC(=O)Nc1ccc(Oc2ccc(OC)cc2)c(-c2cn(C)c(=O)c3ccccc23)c1 [Compound 409, N-(4-(4-methoxyphenoxy)-3-(2-methyl-1-oxo-1,2-dihydroisoquinolin-4-yl)phenyl)acrylamide] | rebound in c-Myc expression | 
4 | 74 | 347 | 10 | C=CC(=O)Nc1ccc(Oc2c(C)cccc2C)c(-c2cc(NC)c(=O)n(C)c2)c1 [Compound 411, N-(4-(2,6-dimethylphenoxy)-3-(1-methyl-5-(methylamino)-6-oxo-1,6-dihydropyridin-3-yl)phenyl)acrylamide] | less durable or no suppression activity | 
5 | 526 | 1370 | 11 | CCS(=O)(=O)Nc1ccc(Oc2c(C)cc(F)cc2C)c(-n2cc(C)c(=O)c3ccccc32)c1 [Compound 570, N-(4-(4-fluoro-2,6-dimethylphenoxy)-3-(3-methyl-4-oxoquinolin-1(4H)-yl)phenyl)ethanesulfonamide] |  | IC50 ([6]; Rattus norvegicus): 2860 nM; IC50 [7]: 1270 nM
6 | 33 | 226 | 1 | C=CC(=O)Nc1ccc(Oc2c(C)cccc2C)c(-c2cn(C)c(=O)cc2OC)c1 [Compound 584, N-(4-(2,6-dimethylphenoxy)-3-(4-methoxy-1-methyl-6-oxo-1,6-dihydropyridin-3-yl)phenyl)acrylamide] | less durable activity | 
7 | 221 | 5070 | 43 | C=CC(=O)Nc1ccc(Nc2c(C)cccc2C)c(-c2cn(C)c(=O)c3cc(C(=O)NCC)sc23)c1 [Compound 585, 7-(5-acrylamido-2-(2,6-dimethylphenylamino)phenyl)-N-ethyl-5-methyl-4-oxo-4,5-dihydrothieno[3,2-c]pyridine-2-carboxamide] | less durable activity | 
8 | 82 | 2850 | 6 | C=CC(=O)Nc1ccc(Oc2c(C)cc(F)cc2C)c(-c2cn(C)c(=O)c3cc(C(=O)NCC)sc23)c1 [Compound 588, 7-(5-acrylamido-2-(4-fluoro-2,6-dimethylphenoxy)phenyl)-N-ethyl-5-methyl-4-oxo-4,5-dihydrothieno[3,2-c]pyridine-2-carboxamide] | less durable activity | 
9 | 71 | 20 | 5 | CCS(=O)(=O)Nc1ccc(Oc2ccc(F)cc2F)c(-n2cc(Cl)c(=O)c3ccccc32)c1 [Compound 661, N-(3-(3-chloro-4-oxoquinolin-1(4H)-yl)-4-(2,4-difluorophenoxy)phenyl)ethanesulfonamide] |  | IC50 ([6]; Rattus norvegicus): 273 nM
10 |  |  |  | Cc1sc2c(c1C)C(c1ccc(Cl)cc1)=N[C@@H](CC(=O)OC(C)(C)C)c1nnc(C)n1-2 [JQ1, reference compound] |  | IC50 ([1]; 22Rv1, 2 hr exposure, three PBS washes, additional 96 hr without compound, read-out: Wash-off IC50): > 10000 nM; IC50 ([1]; 22Rv1, 2 hr, replacement medium with test compound, additional 96 hr, read-out: Mock wash-off IC50): 71 nM

Row | Compound | IC50 ([2]; Homo sapiens) [nM] | IC50 [3] [nM] | IC50 [4] [nM] | c-Myc suppression activity after washoff [5] | further results
11 | C=CC(=O)Nc1ccc(Oc2c(C)cccc2C)c(-c2cn(C)c(=O)c3cc(C(=O)NCC)sc23)c1 [Compound 412, 7-(5-acrylamido-2-(2,6-dimethylphenoxy)phenyl)-N-ethyl-5-methyl-4-oxo-4,5-dihydrothieno[3,2-c]pyridine-2-carboxamide] | 25 | 1740 | 4 | less durable or no suppression activity | 
12 | CCS(=O)(=O)Nc1ccc(Oc2ccc(F)cc2F)c(-n2ccc(=O)c3ccccc32)c1 [Compound 709, N-(4-(2,4-difluorophenoxy)-3-(4-oxoquinolin-1(4H)-yl)phenyl)ethanesulfonamide] |  | 1210 | 93 |  | IC50 [2]: 979 nM; IC50 [6]: 2900 nM
